Eleven compounds from ChEMBL document CHEMBL1201862, “PubChem BioAssay data set” (2004) can be followed below.

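Method: 48-hour compound exposure of cells in 96-well plates, five concentrations, linear interpolation of endpoints. The concentration for 50% growth inhibition is given as GI50.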 Calls of active or inactive are those of the source. Rule as the data show it: active = GI50 up to about 1.1 µM and inactive = higher.

Some test systems named below: ACHN; PC-3; EKVX; SNB-19; HT-29; UACC-62; BT-549; HOP-62; A549; OVCAR-8; T47D; SR; TK-10; SK-MEL-5; MDA-MB-231; SK-MEL-28; SN12C; SF-268; RXF 393; HL-60.
Test in all cases: NCI-60 cell line screen, 48 h

Regarding `CN1C(=O)c2c(c3c4ccccc4n(C)c3c3c2c2ccccc2n3C)C1=O`, the GI50 with ACHN, with PC-3, with EKVX, in the assay on SNB-19, in the assay on HT-29 and in the assay on UACC-62 was > 100 µM (inactive) throughout. The GI50 in the assay with BT-549 is > 100 µM (inactive); in the assay on HOP-62, > 100 µM (inactive); in the assay with A549, > 100 µM (inactive); in the assay with OVCAR-8 it was > 100 µM (inactive); with T47D, > 100 µM (inactive); in the assay with SR, 67.3 µM (inactive). Further, the GI50 with TK-10, with SK-MEL-5, in the assay with MDA-MB-231, with SK-MEL-28 and in the assay on SN12C was > 100 µM (inactive) each time.

Consider `CSc1nc(Cl)c2c(n1)Sc1nc3cc4c(cc3n1C2O)OCCO4` (stereo not drawn), for which the GI50 with ACHN is 0.131 µM (active); in the assay on PC-3, 0.045 µM (active); in the assay on EKVX it was 15.2 µM (inactive); with SF-268 it was 0.459 µM (active); in the assay with SNB-19, 0.344 µM (active); with HT-29, 0.0226 µM (active). The GI50 is 0.125 µM (active) in the assay with UACC-62; 0.489 µM (active) in the assay on BT-549; 0.419 µM (active) in the assay with HOP-62; 0.126 µM (active) with A549; 0.106 µM (active) with OVCAR-8; 15.4 µM (inactive) in the assay on T47D. Also, the GI50 is 0.962 µM (active) in the assay on TK-10; 0.0703 µM (active) in the assay with SK-MEL-5; 0.321 µM (active) with MDA-MB-231; 0.501 µM (active) with SK-MEL-28; 0.354 µM (active) in the assay on RXF 393; 0.526 µM (active) in the assay with SN12C.

Regarding `O=C1Oc2ccccc2C(=O)/C1=C/NC(=S)NCc1ccccc1`, the GI50 is 25.1 µM (inactive) in the assay on ACHN; 54.3 µM (inactive) in the assay on PC-3; > 100 µM (inactive) in the assay on EKVX; 43.6 µM (inactive) in the assay on SNB-19; > 100 µM (inactive) in the assay with HT-29; 5.09 µM (inactive) in the assay with BT-549. Moreover, the GI50 was 57.9 µM (inactive) in the assay on HOP-62; 65.2 µM (inactive) in the assay with A549; 41.1 µM (inactive) with OVCAR-8; 81.7 µM (inactive) with T47D; 6.34 µM (inactive) with TK-10; 42.7 µM (inactive) in the assay on HL-60. The GI50 with SK-MEL-5 is 69.5 µM (inactive); in the assay on MDA-MB-231, 71 µM (inactive); in the assay on SK-MEL-28, > 100 µM (inactive); in the assay on SN12C, 56.5 µM (inactive).

For `CCOC(=O)/C(C(=O)Nc1ccc(F)cc1)=C(/N)N1CCCC1`, the GI50 in the assay with ACHN, in the assay with PC-3, in the assay with EKVX, in the assay with SF-268, with SNB-19 and with HT-29 was > 100 µM (inactive) in each case. The GI50 in the assay with UACC-62 is > 100 µM (inactive); in the assay on BT-549 it was 92.9 µM (inactive); with HOP-62, > 100 µM (inactive); in the assay with A549 it was > 100 µM (inactive); in the assay on OVCAR-8, > 100 µM (inactive); with T47D, > 100 µM (inactive). In addition, the GI50 in the assay on TK-10, in the assay on HL-60, in the assay on MDA-MB-231, with SK-MEL-28, in the assay with RXF 393 and in the assay with SN12C was > 100 µM (inactive) throughout.

Turning to `Cc1nc(C)c(Cc2ccccc2)o1`, the GI50 in the assay on ACHN, with PC-3, with EKVX, with SF-268, with SNB-19 and in the assay with HT-29 was > 100 µM (inactive) throughout. Moreover, the GI50 in the assay on UACC-62, in the assay with BT-549, in the assay on HOP-62, in the assay on A549, in the assay with OVCAR-8 and in the assay on T47D was > 100 µM (inactive) throughout. Besides, the GI50 with TK-10, with HL-60, in the assay on SK-MEL-5, in the assay on MDA-MB-231, in the assay with SK-MEL-28 and with RXF 393 was > 100 µM (inactive) throughout. In addition, the GI50 in the assay with SN12C is > 100 µM (inactive).

As for `CN(C)CC1CCC/C(=C\c2ccc(N(C)C)cc2)C1=O` (stereo not drawn), the GI50 with ACHN was 19.8 µM (inactive); in the assay on PC-3, 18.2 µM (inactive); in the assay with EKVX, 16.7 µM (inactive); in the assay with SF-268, 1.78 µM (inactive); in the assay on SNB-19, 17.7 µM (inactive); with HT-29, 2 µM (inactive). Also, the GI50 in the assay with UACC-62 is 15.8 µM (inactive); in the assay on BT-549 it was 16.2 µM (inactive); with HOP-62, 18.8 µM (inactive); with A549, 17.9 µM (inactive); with OVCAR-8, 5.45 µM (inactive); in the assay on T47D, 2.25 µM (inactive). Besides, the GI50 in the assay on TK-10 was 1.97 µM (inactive); with HL-60, > 100 µM (inactive); in the assay on SK-MEL-5 it was 17.6 µM (inactive); in the assay with MDA-MB-231, 4.78 µM (inactive); with SK-MEL-28, 5.64 µM (inactive); in the assay with RXF 393, 8.13 µM (inactive). Further, in the assay on SN12C, the GI50 was 16.1 µM (inactive).

Take `CC(Cl)CN1c2ccccc2Sc2ccc(Cl)cc21` (stereo not drawn): the GI50 with ACHN, in the assay with PC-3, in the assay with EKVX, in the assay on SF-268, in the assay on SNB-19 and with HT-29 was > 10 µM (inactive) each time. In addition, the GI50 in the assay with UACC-62, with BT-549, with HOP-62, with A549, in the assay with OVCAR-8 and in the assay on T47D was > 10 µM (inactive) each time. Also, the GI50 with TK-10, with HL-60, in the assay with SK-MEL-5, with MDA-MB-231, in the assay on SK-MEL-28 and in the assay on RXF 393 was > 10 µM (inactive) each time. Further, the GI50 in the assay on SN12C is > 10 µM (inactive).

Consider `N/C(=N\O)N/N=C/c1cc(I)cc(I)c1O`, for which the GI50 was 24.1 µM (inactive) in the assay with ACHN; 37.2 µM (inactive) in the assay on PC-3; 58.3 µM (inactive) in the assay with EKVX; 24.1 µM (inactive) in the assay with SF-268; 49.5 µM (inactive) in the assay on SNB-19; 46.7 µM (inactive) with HT-29. For the same compound, the GI50 in the assay on UACC-62 was 31.9 µM (inactive); in the assay on BT-549, 47.4 µM (inactive); in the assay on HOP-62, 42.3 µM (inactive); in the assay on A549, 49.3 µM (inactive); in the assay on OVCAR-8, 27.9 µM (inactive); in the assay on T47D, 48.1 µM (inactive). The GI50 in the assay with TK-10 is 57.7 µM (inactive); in the assay with HL-60 it was 13.2 µM (inactive); with SK-MEL-5, 30.6 µM (inactive); in the assay with MDA-MB-231, 54.8 µM (inactive); in the assay on SK-MEL-28 it was 49.2 µM (inactive); in the assay with RXF 393, 24.5 µM (inactive). Besides, the GI50 in the assay on SN12C is 28.8 µM (inactive).

In the case of `CC(C)C1CCC(=O)CC1CCCCC1CC(=O)CC1O[Si](C)(C)C(C)(C)C` (stereo not drawn), the GI50 was 4.3 µM (inactive) in the assay with ACHN; 7.53 µM (inactive) in the assay on PC-3; 15.7 µM (inactive) in the assay with EKVX; 2.54 µM (inactive) in the assay with SF-268; 3.98 µM (inactive) in the assay with SNB-19; 3 µM (inactive) in the assay with HT-29. The GI50 in the assay with UACC-62 was 4.45 µM (inactive); with BT-549, 4.25 µM (inactive); with HOP-62 it was 7.06 µM (inactive); in the assay on A549, 6.03 µM (inactive); in the assay with OVCAR-8, 3.83 µM (inactive); in the assay on T47D it was 14.2 µM (inactive). The GI50 with TK-10 was 10.5 µM (inactive); in the assay on SK-MEL-5, 3.05 µM (inactive); with MDA-MB-231, 14.6 µM (inactive); in the assay on SK-MEL-28, 5.92 µM (inactive); in the assay with RXF 393 it was 4.67 µM (inactive); in the assay with SN12C, 5.5 µM (inactive).

For `O=c1c(C(c2cnc3ccccc3c2)c2c(O)oc3ccccc3c2=O)c(O)oc2ccccc12`, the GI50 is 48.5 µM (inactive) in the assay on PC-3; 99.3 µM (inactive) in the assay on EKVX; 23.8 µM (inactive) in the assay on SF-268; 23.2 µM (inactive) in the assay on SNB-19; 33.4 µM (inactive) with HT-29; 17.6 µM (inactive) in the assay with UACC-62. Further, the GI50 with BT-549 is 20.7 µM (inactive); in the assay with HOP-62, 46.5 µM (inactive); in the assay with OVCAR-8 it was 33 µM (inactive); with T47D, > 100 µM (inactive); with TK-10, 49.4 µM (inactive); in the assay with HL-60, 37.8 µM (inactive). Further, the GI50 in the assay with SK-MEL-5 is 57.8 µM (inactive); in the assay with MDA-MB-231, 92.7 µM (inactive); in the assay with SK-MEL-28, 25.9 µM (inactive); in the assay with SN12C it was 25.5 µM (inactive).

Take `CC(C)=CCC/C(C)=C/Cc1cc(/C=C/c2cc(O)c(CC=C(C)C)c(O)c2)cc(O)c1O` [MAPPAIN]: the GI50 with ACHN is 1.48 µM (inactive); with PC-3 it was 3.36 µM (inactive); with EKVX, 2.96 µM (inactive); with SF-268 it was 2.64 µM (inactive); with SNB-19, 4.5 µM (inactive); in the assay with HT-29, 4.18 µM (inactive). The GI50 with UACC-62 was 2.7 µM (inactive); with BT-549 it was 3.29 µM (inactive); in the assay on HOP-62 it was 11.4 µM (inactive); in the assay with A549, 4.72 µM (inactive); with OVCAR-8 it was 3.6 µM (inactive); in the assay on T47D, 1.84 µM (inactive). For the same compound, the GI50 is 3.32 µM (inactive) in the assay on TK-10; 0.502 µM (active) in the assay on HL-60; 2.12 µM (inactive) with SK-MEL-5; 11.2 µM (inactive) in the assay with MDA-MB-231; 5.18 µM (inactive) in the assay with SK-MEL-28; 2.46 µM (inactive) with RXF 393. Besides, in the assay on SN12C, the GI50 was 1.95 µM (inactive).
